{"source": "patent US20040038369A1", "about": "“Airway-specific trypsin-like enzymes and method of using the same” (priority 2000, published 2004)", "key": {"EGFR": {"test_system": "EGFR", "assay": "Tyrosine phosphorylation of EGFR in NCI-H292 cells", "assay_type": "cell-based, human", "details": "HAST 0.3 U/mL, 30 to 240 minutes", "experimental": "NCI-H292 cells (purchased from ATCC) were suspended in 10% FCS-containing RPMI-1640 (produced by Gibco Corp.) and then sowed on a 12 well plate (made by Falcon Corp.) in a density of 6.0×10^4 cells/cm^2. The cells were cultured for 72 hours, subjected to the replacement of the culture medium by 0.1% BSA-containing RPMI-1640, and further cultured for 24 hours.\nOn the day of the treatment, the culture solution of the wells was replaced by RPMI-1640 (containing 0.1% BSA) containing HAST (0.3 U/mL), EGF (1 μg/mL), and the treatments were carried out for 30, 60, 120, 180, 240 minutes, respectively.\nThe cells treated with the HAST or the EGF for the prescribed time were twice washed with ice-cooled PBS, mixed with 500 μL of an ice-cooled Lysis buffer solution (50 mM Tris-HCl, pH 7.4, 5 mM EDTA, 1% Triton X-100 (Sigma), 150 mM NaCl, 10% glycerol, 1% Protease inhibitor Cocktail (Sigma), 1% Phosphatase Inhibitor Cocktail (Sigma)), allowed to stand on ice for 15 minutes, and then recovered in a micro tube. The recovered product in the micro tube was centrifuged at 15,000 rpm at 4° C. for 10 minutes, and the supernatant was recovered as a sample. The protein concentration of the sample was assayed with BioRad Protein Assay (produced by Bio Rad Corp.), and properly diluted with the Lysis buffer solution so that the protein concentrations in all the samples become 1.48 mg/mL. […]"}, "PAR-4": {"target": "T1, PAR-4 (Homo sapiens, UniProt Q96RI0)", "T1 construct": "expressed in transfected cells; host or cells: Sf9 insect cells infected with recombinant baculovirus VL-PAR (pVL1393)", "T1 sequence (Q96RI0 18-385)": "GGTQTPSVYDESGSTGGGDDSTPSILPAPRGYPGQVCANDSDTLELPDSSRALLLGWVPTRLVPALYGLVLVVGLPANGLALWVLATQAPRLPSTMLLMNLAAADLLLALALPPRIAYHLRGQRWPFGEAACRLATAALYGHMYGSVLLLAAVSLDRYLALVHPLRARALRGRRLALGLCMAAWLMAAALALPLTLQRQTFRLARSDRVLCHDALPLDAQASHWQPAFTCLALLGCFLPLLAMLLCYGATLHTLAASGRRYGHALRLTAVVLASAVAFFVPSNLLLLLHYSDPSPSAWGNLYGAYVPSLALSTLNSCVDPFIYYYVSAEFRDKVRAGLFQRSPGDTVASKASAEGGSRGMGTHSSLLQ", "assay": "Calcium influx in PAR-4-expressing insect cells", "assay_type": "cell-based", "details": "AST 2 units/ml; trypsin, thrombin 0.1 to 10 units/mL", "experimental": "The above-obtained recombinant baculovirus VL-PAR for expressing the PAR was used to infect 1.0×10^7 Sf9 cells sowed on a 75 cm^2 flask at an MOI=2, and was then left and stationally cultured at 27° C. for 40 hours. After the culture, the infected cells were recovered and then subjected to a calcium influx experiment to-confirm the function of the PAR.\nThe recovered infected cells (about 5×10^6 cells) were once washed with HEPES-Tyrode buffer solution-Ca^2+ (−) pH 7.4, and then suspended in 5 mL of HEPES-Tyrode buffer solution (containing Fura2-AM, 1 μg/mL) to load the Fura2-AM on the cells at 27° C. for 30 minutes. The suspension was centrifuged at 800 rpm at room temperature for 5 minutes to recover the cells. The cells were twice washed with HEPES-Tyrode buffer solution-Ca^2+ (−) pH 7.4 and then resuspended in 5 mL of HEPES-Tyrode buffer solution-Ca^2+ (−) pH 7.4. The cell suspension was mixed with 5 μL of 1M CaCl2 to give a final concentration of 1 mM CaCl2, and then incubated in a shaded state at room temperature for 5 minutes. The prepared Fura2-AM-loaded infected cells were dispensed into a 96 well plate in a volume of 100 μL/well, further subjected to the dispensation of HEPES-Tyrode buffer solution-C^2+ (+) pH 7.4 in a volume of 80 μL/well, and then assayed with a Fluorescence Drug Screening System (made by Hamamatsu Photonics Co.). […]"}}}
{"substance": "HAST: human airway-specific trypsin-like enzyme; propeptide moiety bound to trypsin-like protein moiety via a disulfide bond", "values": [{"measurement": "tyrosine phosphorylation of EGFR", "setting": "EGFR", "result": "activated EGFR"}, {"measurement": "Ca2+ influx", "setting": "PAR-4", "result": "observed"}]}
